This passage reports IC50 and melting point results from patent US9434734B2, “Substituted pyrazoloquinazolinones and pyrroloquinazolinones as allosteric modulators of group II metabotropic glutamate receptors” (Domain Therapeutics, priority 2012, dated 2016).

Data set [1] has as its target T1, human mGluR2 (hmGluR2) transiently over-expressed in HEK-293 cells (Homo sapiens, UniProt Q14416).
T1 construct: expressed in transfected cells; host or cells: HEK-293 cells, transient co-transfection by electroporation
The data set can be described thus: Human mGluR2 negative allosteric modulator evaluation using Ca++ functional assay (agonist and NAM activity). The class given is cell-based. The note with it: hmGluR2 in HEK-293 cells, EC80 glutamate, Fluo4AM calcium readout; read-out: mGluR2 negative allosteric modulator activity IC50. In short, it runs like this:
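Compound alone (agonist mode) was followed on the same plate by EC80 glutamate (NAM mode), with fluorescence read 60 s. Eight-point curves, variable-slope fit, duplicate, two independent runs.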

T1 sequence (Q14416 19-872): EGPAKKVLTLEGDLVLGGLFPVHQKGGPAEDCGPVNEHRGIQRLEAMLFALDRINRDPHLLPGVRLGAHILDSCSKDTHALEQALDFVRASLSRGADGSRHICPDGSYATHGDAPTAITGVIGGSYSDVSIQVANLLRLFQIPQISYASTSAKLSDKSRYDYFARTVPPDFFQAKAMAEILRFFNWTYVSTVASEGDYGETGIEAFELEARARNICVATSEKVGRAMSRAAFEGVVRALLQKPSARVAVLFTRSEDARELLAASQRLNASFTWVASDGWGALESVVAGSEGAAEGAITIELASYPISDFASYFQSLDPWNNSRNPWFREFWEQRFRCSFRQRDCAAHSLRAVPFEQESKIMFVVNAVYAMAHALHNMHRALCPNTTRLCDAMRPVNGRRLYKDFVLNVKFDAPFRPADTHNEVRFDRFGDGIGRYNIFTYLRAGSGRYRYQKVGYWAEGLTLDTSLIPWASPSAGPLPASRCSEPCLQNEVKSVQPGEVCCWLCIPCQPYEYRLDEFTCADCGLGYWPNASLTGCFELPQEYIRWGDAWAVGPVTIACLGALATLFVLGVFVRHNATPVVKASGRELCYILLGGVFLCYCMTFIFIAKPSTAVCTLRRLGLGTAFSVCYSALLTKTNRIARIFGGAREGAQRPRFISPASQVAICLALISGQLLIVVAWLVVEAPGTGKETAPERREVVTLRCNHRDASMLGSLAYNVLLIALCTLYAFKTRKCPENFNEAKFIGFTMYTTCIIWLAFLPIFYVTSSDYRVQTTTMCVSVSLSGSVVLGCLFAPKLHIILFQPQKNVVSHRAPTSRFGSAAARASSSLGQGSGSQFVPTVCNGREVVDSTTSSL

A word on the IC50: it is the concentration needed to halve the response being measured. For orientation: melting point means the temperature, or range, at which the solid turns liquid. As to `Cl.Cn1c(=O)c2ccc(-c3ccc(N)nc3)cc2n2nc(-c3ccco3)cc12` [Example 82, 8-(6-Amino-pyridin-3-yl)-2-furan-2-yl-4-methyl-4H-pyrazolo[1,5-a]quinazolin-5-one], the melting point was in the range of 218 to 229 °C. Moreover, the IC50 in data set [1] was less than 1 µM.
On to `Cl.Cn1c(=O)c2ccc(-c3ccc(N)nc3)cc2n2nc(C3CCSCC3)cc12` [Example 83, 8-(6-Amino-pyridin-3-yl)-4-methyl-2-(tetrahydro-thiopyran-4-yl)-4H-pyrazolo[1,5-a]quinazolin-5-one], for which the melting point was greater than 250 °C. Further, in data set [1], the IC50 is less than 1 µM.
As for `Cl.Cn1c(=O)c2ccc(-c3ccc(N)nc3)cc2n2nc(C3CCS(=O)(=O)CC3)cc12` [Example 84, 8-(6-Amino-pyridin-3-yl)-2-(1,1-dioxo-tetrahydro-2H-thiopyran-4-yl)-4-methyl-4H-pyrazolo[1,5-a]quinazolin-5-one], the melting point was greater than 250 °C. For the same compound, in data set [1], the IC50 is less than 1 µM.
Turning to `Cn1cc(-c2ccc3c(=O)n(C)c4cc(-c5cccnc5)nn4c3c2)cn1` [Example 85, 4-Methyl-8-(1-methyl-1H-pyrazol-4-yl)-2-pyridin-3-yl-4H-pyrazolo[1,5-a]quinazolin-5-one], the melting point was greater than 250 °C. In addition, in data set [1], the half-maximal inhibitory concentration (IC50) is less than 1 µM.
Turning to `Cl.Cn1c(=O)c2ccc(-c3ccc(N)nc3)cc2n2nc(C3CCOCC3)cc12` [Example 86, 8-(6-Amino-pyridin-3-yl)-4-methyl-2-(tetrahydro-pyran-4-yl)-4H-pyrazolo[1,5-a]quinazolin-5-one], the melting point is greater than 250 °C. The IC50 in data set [1] was less than 1 µM.
With `Cn1c(=O)c2ccc(-c3cccc(C#N)c3)cc2n2nc(C3CCOCC3)cc12` [Example 88, 3-[4-Methyl-5-oxo-2-(tetrahydro-pyran-4-yl)-4,5-dihydro-pyrazolo[1,5-a]quinazolin-8-yl]-benzonitrile], the melting point was 210 to 216 °C. Also, in data set [1], the IC50 is less than 1 µM.
For `Cl.Cn1c(=O)c2ccc(-c3cccnc3)cc2n2nc(C3CCOCC3)cc12` [Example 89, 4-Methyl-8-pyridin-3-yl-2-(tetrahydro-pyran-4-yl)-4H-pyrazolo[1,5-a]quinazolin-5-one] the same measures were 202 to 224 °C and less than 1 µM.
`Cc1[nH]ncc1-c1ccc2c(=O)n(C)c3cc(C4CCOCC4)nn3c2c1` [Example 92, 4-Methyl-8-(5-methyl-1H-pyrazol-4-yl)-2-(tetrahydro-pyran-4-yl)-4H-pyrazolo[1,5-a]quinazolin-5-one] yielded a melting point of 223 to 229 °C. Moreover, the half-maximal inhibitory concentration (IC50) in data set [1] is less than 1 µM.
`Cc1cc(-c2ccc3c(=O)n(C)c4cc(C5CCOCC5)nn4c3c2)cc(C)n1.Cl` [Example 97, 8-(2,6-Dimethyl-pyridin-4-yl)-4-methyl-2-(tetrahydro-pyran-4-yl)-4H-pyrazolo[1,5-a]quinazolin-5-one] came in with a melting point greater than 250 °C. Moreover, the IC50 in data set [1] is less than 1 µM.
`Cn1c(=O)c2ccc(-c3cccc(S(=O)(=O)NC(C)(C)CO)c3)cc2n2nc(C3CCOCC3)cc12` [Example 101, N-(2-Hydroxy-1,1-dimethyl-ethyl)-3-[4-methyl-5-oxo-2-(tetrahydro-pyran-4-yl)-4,5-dihydro-pyrazolo[1,5-a]quinazolin-8-yl]-benzenesulfonamide]: the melting point lay within 223 to 226 °C. The IC50 in data set [1] was less than 1 µM.
Regarding `Cc1cc(-c2ccc3c(=O)n(CC(F)F)c4cc(C5CCOCC5)nn4c3c2)cc(C)n1.Cl` [Example 102, 4-(2,2-Difluoro-ethyl)-8-(2,6-dimethyl-pyridin-4-yl)-2-(tetrahydro-pyran-4-yl)-4H-pyrazolo[1,5-a]quinazolin-5-one], the melting point is greater than 250 °C. For the same compound, the IC50 in data set [1] is less than 1 µM.
`Cl.Nc1ccc(-c2ccc3c(=O)n(CC(F)F)c4cc(C5CCOCC5)nn4c3c2)cn1` [Example 103, 8-(6-Amino-pyridin-3-yl)-4-(2,2-difluoro-ethyl)-2-(tetrahydro-pyran-4-yl)-4H-pyrazolo[1,5-a]quinazolin-5-one] returned a melting point greater than 250 °C. Also, in data set [1], the 50% inhibitory concentration (IC50) was less than 1 µM.
For the compound `Cl.Nc1ccc(-c2ccc3c(=O)n(CC(F)(F)F)c4cc(C5CCOCC5)nn4c3c2)cn1` [Example 104, 8-(6-Amino-pyridin-3-yl)-2-(tetrahydro-pyran-4-yl)-4-(2,2,2-trifluoro-ethyl)-4H-pyrazolo[1,5-a]quinazolin-5-one], the melting point was greater than 250 °C. Moreover, in data set [1], the IC50 was less than 1 µM.
On to `Cc1cc(-c2ccc3c(=O)n(C)c4cc(C5CCOC5)nn4c3c2)cc(C)n1.Cl` (stereo not shown) [Example 106, 8-(2,6-Dimethyl-pyridin-4-yl)-4-methyl-2-(tetrahydro-furan-3-yl)-4H-pyrazolo[1,5-a]quinazolin-5-one], for which the melting point was greater than 250 °C. In addition, in data set [1], the IC50 is less than 1 µM.
The corresponding values for `Cc1cc(-c2ccc3c(=O)n(C)c4cc(C5CCCOC5)nn4c3c2)cc(C)n1.Cl` (stereo not shown) [Example 108, 8-(2,6-Dimethyl-pyridin-4-yl)-4-methyl-2-(tetrahydro-pyran-3-yl)-4H-pyrazolo[1,5-a]quinazolin-5-one] are 182 to 193 °C and less than 1 µM.
Compound `Cc1cc(-c2ccc3c(=O)n(C)c4cc(C5CCCCO5)nn4c3c2)cc(C)n1.Cl` (stereo not shown) [Example 109, 8-(2,6-Dimethyl-pyridin-4-yl)-4-methyl-2-(tetrahydro-pyran-2-yl)-4H-pyrazolo[1,5-a]quinazolin-5-one] yielded a melting point of 186 to 194 °C. Further, the IC50 in data set [1] was less than 1 µM.
The compound `Cl.Cn1c(=O)c2ccc(-c3ccc(N)nc3)cc2n2cc(-c3ccccc3)cc12` [Example 110, 8-(6-Amino-pyridin-3-yl)-4-methyl-2-phenyl-4H-pyrrolo[1,2-a]quinazolin-5-one] yielded a melting point greater than 250 °C. The IC50 in data set [1] is less than 1 µM.
In the case of `Cc1cc(-c2ccc3c(=O)n(C)c4cc(-c5ccccc5)cn4c3c2)cc(C)n1.Cl` [Example 111, 8-(2,6-Dimethyl-pyridin-4-yl)-4-methyl-2-phenyl-4H-pyrrolo[1,2-a]quinazolin-5-one], the melting point is greater than 250 °C. Also, in data set [1], the 50% inhibitory concentration (IC50) is less than 1 µM.
`Cc1cc(-c2cc3n(C)c(=O)c4ccc(-c5ccccc5)cc4n3n2)cc(C)n1.Cl` [Example 115, 2-(2,6-Dimethyl-pyridin-4-yl)-4-methyl-8-phenyl-4H-pyrazolo[1,5-a]quinazolin-5-one] showed a melting point greater than 250 °C. Besides, the IC50 in data set [1] was less than 1 µM.
In the case of `Cc1cc(-c2cc3n(C)c(=O)c4ccc(-c5c[nH]nc5C)cc4n3n2)cc(C)n1.Cl` [Example 121, 2-(2,6-Dimethyl-pyridin-4-yl)-4-methyl-8-(3-methyl-1H-pyrazol-4-yl)-4H-pyrazolo[1,5-a]quinazolin-5-one], the melting point is greater than 250 °C. Moreover, in data set [1], the IC50 was less than 1 µM.
For the compound `Cc1cc(-c2cc3n(C)c(=O)c4ccc(-c5cnn(C)c5)cc4n3n2)cc(C)n1.Cl` [Example 122, 2-(2,6-Dimethyl-pyridin-4-yl)-4-methyl-8-(1-methyl-1H-pyrazol-4-yl)-4H-pyrazolo[1,5-a]quinazolin-5-one], the melting point is greater than 250 °C. In data set [1], the IC50 is less than 1 µM.
For `Cn1cc(-c2cc3n(C)c(=O)c4ccc(-c5ccccc5)cc4n3n2)cn1` [Example 124, 4-Methyl-2-(1-methyl-1H-pyrazol-4-yl)-8-phenyl-4H-pyrazolo[1,5-a]quinazolin-5-one], the melting point lay in the range of 228 to 231 °C. The IC50 in data set [1] was less than 1 µM.
With `Cl.Cn1cc(-c2cc3n(C)c(=O)c4ccc(-c5cccnc5)cc4n3n2)cn1` [Example 126, 4-Methyl-2-(1-methyl-1H-pyrazol-4-yl)-8-pyridin-3-yl-4H-pyrazolo[1,5-a]quinazolin-5-one], the melting point is greater than 250 °C. In data set [1], the IC50 is less than 1 µM.
The compound `Cl.Cn1cc(-c2cc3n(C)c(=O)c4ccc(-c5ccc(N)nc5)cc4n3n2)cn1` [Example 128, 8-(6-Amino-pyridin-3-yl)-4-methyl-2-(1-methyl-1H-pyrazol-4-yl)-4H-pyrazolo[1,5-a]quinazolin-5-one] yielded a melting point of 217 to 228 °C. Moreover, the IC50 in data set [1] was less than 1 µM.
Compound `Cl.Cn1cc(-c2cc3n(C)c(=O)c4ccc(-c5ccncc5)cc4n3n2)cn1` [Example 129, 4-Methyl-2-(1-methyl-1H-pyrazol-4-yl)-8-pyridin-4-yl-4H-pyrazolo[1,5-a]quinazolin-5-one] yielded a melting point greater than 250 °C. Besides, the IC50 in data set [1] was less than 1 µM.
`Cc1cc(-c2ccc3c(=O)n(C)c4cc(-c5cnn(C)c5)nn4c3c2)cc(C)n1.Cl` [Example 130, 8-(2,6-Dimethyl-pyridin-4-yl)-4-methyl-2-(1-methyl-1H-pyrazol-4-yl)-4H-pyrazolo[1,5-a]quinazolin-5-one] gave a melting point greater than 250 °C. The IC50 in data set [1] is less than 1 µM.
The corresponding values for `CCn1cc(-c2cc3n(C)c(=O)c4ccc(-c5ccc(N)nc5)cc4n3n2)cn1.Cl` [Example 131, 8-(6-Amino-pyridin-3-yl)-2-(1-ethyl-1H-pyrazol-4-yl)-4-methyl-4H-pyrazolo[1,5-a]quinazolin-5-one] are 226 to 238 °C and less than 1 µM.
Take `Cc1ncccc1-c1ccc2c(=O)n(C)c3cc(-c4ccnc(C(F)(F)F)c4)nn3c2c1.Cl` [Example 135, 4-Methyl-8-(2-methyl-pyridin-3-yl)-2-(2-trifluoromethyl-pyridin-4-yl)-4H-pyrazolo[1,5-a]quinazolin-5-one]: the melting point is greater than 250 °C. In addition, the IC50 in data set [1] is less than 1 µM.
In the case of `Cl.Cn1c(=O)c2ccc(-c3ccc(N)nc3)cc2n2nc(-c3ccnc(C(F)(F)F)c3)cc12` [Example 136, 8-(6-Amino-pyridin-3-yl)-4-methyl-2-(2-trifluoromethyl-pyridin-4-yl)-4H-pyrazolo[1,5-a]quinazolin-5-one], the melting point is greater than 250 °C. In addition, the IC50 in data set [1] was less than 1 µM.
